# Data as given in patent US10071989B2, “Substituted cinnamamide derivative, preparation method and use thereof” (TASLY PHARMACEUTICAL GROUP CO., LTD., priority 2011, dated 2018).
# Entries after “also recorded” stand apart in the source; their conditions may differ. Like-named read-outs stand apart in the source and are kept apart here.
# Experiments:
# C57BL/6 mice [1] = assay: Depression model test of anti-blepharoptosis caused by reserpine (akinesia, blepharoptosis, shell temperature); assay type: in vivo; conditions: for Blepharoptosis, “out-of-circle” ratio and shell temperature after reserpine (effect in words): compared with the solvent control group; for Degree of eye-closure: score 0-4 one hour after reserpine; for responders at 10 mg/kg: Mus musculus, po, 1 h, one hour after reserpine, 7.5 cm circle, 15-second observation, read-out: “out-of-circle” ratio
# Description: 120 male C57BL/6 mice were randomly selected to observe the number of their autonomic activity. The mice was placed into the YLS-1A multi-functional mice autonomic activity recorder, and after 1 min of adaption, the activity of the mice was counted within a time period from the end of 1st min to 4th min. 96 mice with the number of autonomic activity between 70˜140 were screened out, divided randomly into 8 groups, and intragastrically administrated with the drug compounds at a dose listed in Table 3, one time daily for 7 days consecutively. The solvent control group was administrated with 2% Tween-80 aqueous solution in the same volume. Except the normal control group, 30 min after the last administration, each group was injected intraperitoneally with reserpine at a dose of 4 mg/kg. Next, akinesia, blepharoptosis and shell temperature were observed.
# I Akinesia: one hour after intraperitoneal injection of reserpine, the mice were placed at the center of a circle with a diameter of 7.5 cm for a 15-second observation to calculate the “out-of-circle” ratio.
# II Blepharoptosis: one hour after intraperitoneal injection of reserpine, the eye closure of mice was observed and scored by the following standard: eyelids open, 0; eyelids ¼ closed, 1; eyelids 2/4 closed, 2; eyelids ¾ closed, 3; eyelids closed completely, 4.
# III Shell temperature: two hours after intraperitoneal injection of reserpine, the shell temperature of the abdomen of the mice was measured.
# 120 C57BL/6 mice were randomly selected to observe the number of their autonomic activity. The method was the same with that of Experiment 1. 100 mice with the number of autonomic activity between 70˜140 were screened out, divided randomly into 10 groups, and intragastrically administrated with the drug compounds at a dose listed in Table 4, one time daily for 7 days consecutively. The mice in the normal group and the solvent control group were administrated with 2% Tween-80 aqueous solution in the same volume. Except the normal control group, 30 min after the last administration, each group was injected intraperitoneally with reserpine at a dose of 4 mg/kg. Next, akinesia, blepharoptosis and shell temperature were observed. Observation method was the same with that of Experiment 1.
# C57BL/6 mice [2] = assay: Number of autonomic activity of mice (YLS-1A autonomic activity recorder); assay type: in vivo; conditions: for Number of Autonomic activity (time): 10 mg/kg intragastric once daily, counted 30 min after administration at 6th day
# Description: 110 mice were randomly selected to observe the number of their autonomic activity. The mice was placed into the YLS-1A multi-functional mice autonomic activity recorder, and after 1 min of adaption, the mice's activity was counted within a time period from the end of 1st min to 4th min. 96 mice with the number of autonomic activity between 70˜140 were screened out, divided randomly into 8 groups, and intragastrically administrated with the drug compounds at a dose listed in Table 1, one time daily for 7 days consecutively. The solvent control group was administrated with 2% Tween-80 aqueous solution in the same volume. All mice were placed into the autonomic activity recorder 30 min after administration at 6th day. After 1 min of adaption, the mice's activity was counted within a time period from the end of 1st min to 4th min.
# (§1) 130 mice were randomly selected to observe the number of their autonomic activity. The method was the same with that of Experiment 1. 108 mice with the number of autonomic activity between 70˜140 were screened out, divided randomly into 9 groups, and intragastrically administrated with the drug compounds at a dose listed in Table 2, one time daily for 7 days consecutively. The solvent control group was administrated with 2% Tween-80 aqueous solution in the same volume. 30 min after administration at 6th day, the number of the autonomic activity of each mouse was observed. 30 min after administration at 7th day, the immobility time in tail suspension test was observed. The method was the same with that in Experiment 1.
# [3] = Chinese patent application 201010169679.9; cited from earlier work
# C57BL/6 mice [4] = assay: "Acquired despair" depression model of tail suspension test in mice; assay type: in vivo; conditions: 10 mg/kg intragastric for 7 days; compared with the solvent control group
# Description: 30 min after administration at 7th day, the mice was fixed on a sustainer with a rubberized cloth at 1 cm close to the end of the tail of mice, making the mice hanged upside down. The head of the mice was about 30 cm above the table and its sight was separated from the neighboring mouse with a plate. Usually, the mice might manage to struggle in hopes of overcoming the abnormal body position. […] The accumulated immobility time within 6 min of each mouse was observed, which was regarded as “despair time”.
# as §1
# C57BL/6 mice [5] = assay: Forced swimming experiment in mice; assay type: in vivo
# Description: After 1˜2 days of adaptive feed, 80 male C57BL/6 mice, aged 6˜8 weeks and weighing 18˜22 g, were placed into the YLS-1A multi-functional mice autonomic activity recorder. After 1 min of adaption, the activity of the mice was counted within a time period from the end of 1st min to 4th min. 60 mice with the number of autonomic activity between 70˜140 were screened out, divided randomly into 6 groups, and intragastrically administrated with the drug compounds at a dose listed in Table 5, one time daily for 7 days consecutively. The solvent control group was administrated with 2% Tween-80 aqueous solution in the same volume. After the administration at 6th day, the mice were placed into a cylindrical aquarium with a water depth of 10 cm and 25° C. to force the mice to swim. After 15 min, the mice were taken out, dried and returned to the cage. 24 hours later, 30 min after the last intragastrical administration, the mice were placed into a glass bottle with a diameter of 10 cm, a height of 30 cm and a water depth of 10 cm, and the temperature of the water in the bottle was at 25° C. The mice were separated with an opaque partition, so as not to influence each other. After 2 min of adaption, an accumulated immobility time from the end of 2nd min to 6th min was recorded.
# mice = assay: Anti-depression effect in the tested models (overall conclusion); assay type: in vivo; conditions: in the tested model at the tested dose
# Source text: Based on the aforesaid experiments, the following conclusion can be drawn: • 1.
# [6] = Experiment 2, 10 mg/kg intragastric 7 days, reserpine 4 mg/kg i.p., abdomen, two hours after reserpine, ±SD
# [7] = Experiment 2, 10 mg/kg intragastric 7 days, reserpine 4 mg/kg i.p., ±SD
# [8] = Experiment 2, 10 mg/kg intragastric 7 days, reserpine 4 mg/kg i.p.
structure (smiles),measurement,setting,value
"COc1cc(/C=C/C(=O)NCC(C)C)cc2c1OCO2 [Compound I-1, N-isobutyl-5′-methoxy-3′,4′-methylenedioxy cinnamamide]","Blepharoptosis, “out-of-circle” ratio and shell temperature after reserpine (effect in words)",C57BL/6 mice [1]; 10 mg/kg intragastric 7 days,improved significantly; also recorded: remarkably improve
same,Change in the shell temperature (ΔT ° C.),"C57BL/6 mice [1]; Experiment 1, 10 mg/kg intragastric 7 days, reserpine 4 mg/kg i.p., abdomen, two hours after reserpine, ±SD",2.05 ± 0.24 °C
same,Degree of eye-closure,"C57BL/6 mice [1]; Experiment 1, 10 mg/kg intragastric 7 days, reserpine 4 mg/kg i.p., ±SD",2.67 ± 0.89
same,Change in the shell temperature (T ° C.),C57BL/6 mice [1]; [6],27.80 ± 0.61 °C
same,Degree of eye-closure,C57BL/6 mice [1]; [7],2.91 ± 0.75
same,responders at 10 mg/kg,"C57BL/6 mice [1]; Experiment 1, 10 mg/kg intragastric 7 days, reserpine 4 mg/kg i.p.",17%
same,responders at 10 mg/kg,C57BL/6 mice [1]; [8],10%
same,Number of Autonomic activity (time),"C57BL/6 mice [2]; Experiment 1, end of 1st min to 4th min",113.92 ± 14.24 time
same,Anti-depressive effect in animal experiments (in words),[3],significant anti-depressive effect
"O=C(c1cc2c(c(C(F)(F)F)c1)OCO2)N1CCCCC1 [Compound I-13, 1-(5-trifluoromethyl-3,4-methylenedioxybenzoyl)-piperidine]","Blepharoptosis, “out-of-circle” ratio and shell temperature after reserpine (effect in words)",C57BL/6 mice [1]; 10 mg/kg intragastric 7 days,"remarkably improve; also recorded: antagonizing the decrease of shell temperature, akinesia and improving the degree of eye closure"
same,"Blepharoptosis, shell temperature and “out-of-circle” ratio compared with Compound I-1 (in words)","C57BL/6 mice [1]; 10 mg/kg, compared with I-1, p<0.05, p<0.01",significantly improved effect
same,Improvement in eye closure and shell temperature compared with fluoxetine (in words),"C57BL/6 mice [1]; 10 mg/kg, compared with fluoxetine, p<0.05",better effect to a certain degree
same,"Improving akinesia, blepharoptosis and shell temperature: ranking among the tested compounds (in words)","C57BL/6 mice [1]; 10 mg/kg, within the experiment",better effects
same,Change in the shell temperature (T ° C.),C57BL/6 mice [1]; [6],30.20 ± 0.95 °C
same,Degree of eye-closure,C57BL/6 mice [1]; [7],0.90 ± 0.88
same,responders at 10 mg/kg,C57BL/6 mice [1]; [8],70%
same,Effect on immobility time in tail suspension test (in words),C57BL/6 mice [4],reduce the immobility time of the mice in tail suspension test significantly; also recorded: significantly shorten the immobility time
same,Effect on autonomic activity of mice (in words),"C57BL/6 mice [2]; 10 mg/kg intragastric, one week, compared with the solvent control group",had no effect
same,Number of Autonomic activity (time),C57BL/6 mice [2]; Experiment 2,87.40 ± 22.39 time
same,Immobility time in the forced swimming test in mice(s),"C57BL/6 mice [5]; 10 mg/kg intragastric once daily for 7 days, 30 min after last administration, end of 2nd min to 6th min",76.00 ± 32.32 s
same,Effect on immobility time in the forced swimming test (in words),"C57BL/6 mice [5]; within the dosage range (5-10 mg/kg), compared with the solvent control group",shortening the immobility time; also recorded: shorten the immobility time
same,Anti-depression effect compared with the pharmacologic effect of I-1 (in words),mice,increased to some degree
